Reference: the supplement of paper PMC10307832

Assays:
Assay in all cases: relative viability (nuclei count vs DMSO), 5 days (fraction); higher = more cells survive
AZ505 + Olaparib = compound: C1CCC(CC1)N(CCNCCC2=C3C(=C(C=C2)O)NC(=O)CO3)C(=O)CCNCCC4=CC(=C(C=C4)Cl)Cl [AZ505] + O=C(c1cc(Cc2n[nH]c(=O)c3ccccc23)ccc1F)N1CCN(C(=O)C2CC2)CC1 [Olaparib] (partner 8 µM)
Outline: (§1)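 For relative viability, nuclei counts in treated wells were divided by those in vehicle wells. Lung cancer cell lines had been pin-tool dosed in 1536-well plates the day after seeding and cultured for 5 days, then fixed and stained in one step (final 0.05% Triton X-100, 1% formaldehyde, 1 ug/ml Hoechst) and imaged at 4×. Doses were one drug alone or a fixed anchor-drug dose plus five library-drug doses (not always all listed) in √10 steps, and values are duplicate-plate medians.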

Dactolisib + Dasatinib = compound: Cn1c(=O)n(-c2ccc(C(C)(C)C#N)cc2)c2c3cc(-c4cnc5ccccc5c4)ccc3ncc21 [Dactolisib] + Cc1nc(Nc2ncc(C(=O)Nc3c(C)cccc3Cl)s2)cc(N2CCN(CCO)CC2)n1 [Dasatinib] (partner 0.075 µM)
Outline: as §1

AZ505 + Pictilisib = compound: C1CCC(CC1)N(CCNCCC2=C3C(=C(C=C2)O)NC(=O)CO3)C(=O)CCNCCC4=CC(=C(C=C4)Cl)Cl [AZ505] + CS(=O)(=O)N1CCN(Cc2cc3nc(-c4cccc5[nH]ncc45)nc(N4CCOCC4)c3s2)CC1 [Pictilisib] (partner 1 µM)
Outline: as §1

AZ505 + Bortezomib = compound: C1CCC(CC1)N(CCNCCC2=C3C(=C(C=C2)O)NC(=O)CO3)C(=O)CCNCCC4=CC(=C(C=C4)Cl)Cl [AZ505] + CC(C)C[C@H](NC(=O)[C@H](Cc1ccccc1)NC(=O)c1cnccn1)B(O)O [Bortezomib] (partner 0.002 µM)
Outline: as §1

Cell Line	relative viability (AZ505 + Olaparib; first compound 0.08 µM)	relative viability (AZ505 + Olaparib; first compound 0.253 µM)	relative viability (AZ505 + Olaparib; first compound 0.8 µM)	relative viability (AZ505 + Olaparib; first compound 2.53 µM)	relative viability (AZ505 + Olaparib; first compound 8 µM)	relative viability (Dactolisib + Dasatinib; first compound 0.002 µM)	relative viability (Dactolisib + Dasatinib; first compound 0.006325 µM)	relative viability (Dactolisib + Dasatinib; first compound 0.02 µM)	relative viability (Dactolisib + Dasatinib; first compound 0.06325 µM)	relative viability (Dactolisib + Dasatinib; first compound 0.2 µM)	relative viability (AZ505 + Pictilisib; first compound 0.08 µM)	relative viability (AZ505 + Pictilisib; first compound 0.253 µM)	relative viability (AZ505 + Pictilisib; first compound 0.8 µM)	relative viability (AZ505 + Pictilisib; first compound 2.53 µM)	relative viability (AZ505 + Pictilisib; first compound 8 µM)	relative viability (AZ505 + Bortezomib; first compound 0.253 µM)	relative viability (AZ505 + Bortezomib; first compound 0.8 µM)	relative viability (AZ505 + Bortezomib; first compound 8 µM)	relative viability (AZ505 + Bortezomib; first compound 0.08 µM)	relative viability (AZ505 + Bortezomib; first compound 2.53 µM)
NCI-H2347	0.554	0.505	0.489	0.489	0.52	0.284	0.306	0.313	0.291	0.253	0.551	0.581	0.537	0.455	0.541	0.801	0.75	0.681	–	–
NCI-H2228	0.669	0.627	0.524	0.863	0.481	0.629	0.441	0.339	0.162	0.141	0.317	0.247	0.536	0.332	0.484	1.15	0.856	0.828	0.907	0.864
EKVX	–	0.895	0.764	0.874	0.916	0.523	0.578	0.382	0.269	0.204	0.388	0.466	0.425	0.446	0.501	0.906	0.986	0.992	0.992	1.09
HOP-62	–	0.374	0.386	0.387	0.45	0.637	0.578	0.625	0.349	0.277	0.557	0.678	0.829	0.407	0.647	0.82	1.01	0.945	0.911	0.839
NCI-H2126	0.841	0.915	0.827	0.878	0.948	0.599	0.589	0.504	0.385	0.279	0.448	0.462	0.535	0.452	0.544	1.09	1.08	1.04	1.11	1.09
EPLC-272H	0.638	0.664	0.654	0.782	0.628	0.359	0.254	0.318	0.207	0.233	0.255	0.306	0.285	0.256	0.289	1.04	0.85	0.904	0.769	0.721
PC-3 [JPC-3]	0.918	–	0.944	1.01	1.15	1.1	0.941	0.911	1.03	0.885	0.597	0.702	0.676	0.706	0.827	0.768	0.684	0.771	0.735	0.775
NCI-H650	0.386	0.462	0.425	0.497	0.356	0.539	0.432	0.449	0.314	0.305	0.69	1.01	0.876	0.86	0.885	0.793	0.818	0.775	0.607	1.02
NCI-H838	0.688	0.765	0.744	0.787	0.776	0.261	0.259	0.247	0.248	0.224	0.342	0.404	0.493	0.344	0.411	0.609	0.761	0.884	0.805	0.564
COR-L 105	0.405	0.657	0.698	0.715	0.554	0.294	0.293	0.309	0.2	0.202	0.368	0.391	0.375	0.355	0.497	0.907	0.813	0.77	0.712	0.65
NCI-H2405	0.742	–	0.758	0.788	0.828	0.224	0.238	0.207	0.213	0.187	0.256	0.21	0.278	0.259	0.254	0.802	0.81	0.925	0.733	0.859
NCI-H661	0.732	0.751	0.728	0.709	0.727	0.562	0.744	0.483	0.296	0.286	–	0.357	0.392	0.563	0.45	1.01	0.716	0.732	0.798	0.787
NCI-H1915	0.259	0.272	0.247	0.272	0.257	0.357	0.332	0.308	0.241	0.175	0.907	0.891	0.835	0.703	0.913	0.968	0.861	0.978	0.86	0.87
CAL-12T	0.588	0.777	0.736	0.706	0.696	0.456	0.35	0.252	0.172	0.108	0.445	0.355	0.559	0.432	0.512	0.82	0.835	1.01	0.946	0.936
